Data as given in ChEMBL document CHEMBL3271944, “Biologically active polycycloalkanes. 2. Antiviral 4-homoisotwistane derivatives” (J Med Chem, 1976).
Values after ≈ are worked out from the molar mass of the structure shown. Counter-ions that a name gives are not always drawn.

How the values were obtained:
[1] = test system: Newcastle disease virus; test: Antiviral activity against Newcastle disease virus Miyadera infected in CEF assessed as suppression of <= 1% hemagglutinating activity by tube assay; format: functional; conditions: avian paramyxovirus 1, Miyadera
[2] = Cytotoxicity against CEF after 24 hrs by microscopic analysis; set-up: species or system Gallus gallus; conditions: chicken; for MCC at 24 h: CEF cells; for MCC: 24 h
[3] = test system: Newcastle disease virus; test: Ratio of amantadine hydrochloride MIC to compound MIC for Newcastle disease virus Miyadera infected in CEF; format: functional, avian paramyxovirus 1
[4] = Ratio of MCC for CEF to MIC for Newcastle disease virus Miyadera infected in CEF

| Compound | MIC [1] [µM] | MCC at 24 h [2] [µM] | Ratio [3] | Ratio [4] | MCC [2] |
| --- | --- | --- | --- | --- | --- |
| C1CC2CC3CCC2C(C1)C3 | 670 (≈ 101 µg/mL) | 670 |  |  |  |
| CC(=O)NC12CCCC3CC(CCC31)C2 (stereo not given) | 750 (≈ 155 µg/mL) | 3000 |  |  |  |
| Cl.NC12CCCC3CC(CCC31)C2 (stereo not given) | 25 | 200 | 30 | 2 |  |
| OC12CCCC3CC(CCC31)C2 (stereo not given) | 3000 (≈ 499 µg/mL) | 6000 |  |  |  |
| O=C1C2CCC3C(CCCC13)C2 (stereo not given) | 1200 (≈ 197 µg/mL) | 2400 |  |  |  |
| O=C(O)C12CCCC3CC(CCC31)C2 (stereo not given) | 10000 (≈ 1940 µg/mL) | 10000 |  |  |  |
| COC(=O)C12CCCC3CC(CCC31)C2 (stereo not given) | 80 (≈ 16.7 µg/mL) | 80 |  |  |  |
| OCC12CCCC3CC(CCC31)C2 (stereo not given) | 440 (≈ 79.3 µg/mL) | 870 |  |  |  |
| NC(=O)C12CCCC3CC(CCC31)C2 (stereo not given) | 2600 (≈ 503 µg/mL) | 5200 |  |  |  |
| CCCCCCCCOC(=O)C12CCCC3CC(CCC31)C2 (stereo not given) | 330 (≈ 101 µg/mL) | 490 |  |  |  |
| CNC(=O)C12CCCC3CC(CCC31)C2 (stereo not given) | 3000 (≈ 622 µg/mL) | 750 |  |  |  |
| CCCCNC(=O)C12CCCC3CC(CCC31)C2 (stereo not given) | 625 (≈ 156 µg/mL) | 300 |  |  |  |
| O=C(NC1CCCCC1)C12CCCC3CC(CCC31)C2 (stereo not given) | 2250 (≈ 620 µg/mL) | 2250 |  |  |  |
| O=C(NC12CC3CC(CC(C3)C1)C2)C12CCCC3CC(CCC31)C2 (stereo not given) | 7500 (≈ 2460 µg/mL) | 2000 |  |  |  |
| N#CC12CCCC3CC(CCC31)C2 (stereo not given) | 570 (≈ 99.9 µg/mL) | 850 |  |  |  |
| Cl.NCC12CCCC3CC(CCC31)C2 (stereo not given) | 45 | 90 | 30 | 2 |  |
| BrC12CCCC3CC(CCC31)C2 (stereo not given) |  |  |  |  | ND(Unstable) |
| C1=C2CCCC3CC1CCC23 (stereo not given) |  |  |  |  | ND(Unstable) |
| O=C(Cl)C12CCCC3CC(CCC31)C2 (stereo not given) |  |  |  |  | ND(Unstable) |
| O[C@H]1C2CCCC3C[C@H]1CC[C@H]32 (relative stereo) | 900 (≈ 150 µg/mL) | 1800 |  |  |  |
| O[C@@H]1C2CCCC3C[C@@H]1CC[C@@H]32 (relative stereo) | 750 (≈ 125 µg/mL) | 750 |  |  |  |
| NC12CC3CC(CC(C3)C1)C2 [AMANTADINE HYDROCHLORIDE] | 1300 | 1300 |  |  |  |
